Measurements: publication PMC11653257, “Organometallic Half-Sandwich Complexes of 8-Hydroxyquinoline-Derived Mannich Bases with Enhanced Solubility: Targeting Multidrug Resistant Cancer” (Inorganic Chemistry, 2024)
Values after ≈ are worked out from the molar mass of the structure shown. Like-named read-outs stand apart in the source and are kept apart here.

How the values were obtained:
[1] = pKa of the ligands by UV–vis titration; format: physicochemical; details: for pKa: 0.20 M KNO3, UV–vis, I = 0.20 M KNO3, 10 equiv. EDTA
Procedure: Physico-chemical properties such as aqueous solubility, lipophilicity, and the actual protonation state at a given pH are known to influence the pharmacokinetic behavior of a drug.
An Agilent Cary 8454 diode array spectrophotometer was utilized to obtain UV–vis spectra in the wavelength range 190–1100 nm. The path length (l) was 1 or 2 cm in most cases (the actual l is always indicated in the legends of the figures). The concentrations of the ligands and complexes were between 36 and 100 μM. The ligands were titrated in the presence of 10 equiv of EDTA. Individual samples contained 0–37 μM HSA, 0–206 μM MIM, 0–759 μM AHA, or 0–733 μM FHA. Spectra were always background and baseline corrected. The computer program HypSpec[64] was used to obtain stability constants.

[2] = n-octanol/water distribution coefficient (shake-flask); format: physicochemical; details: pH 7.4
Procedure: The exchange of the coligand (H2O/Cl^–) changes the overall charge of the complex, thus affecting lipophilicity. […] The traditional shake-flask method was used to obtain distribution coefficients of the ligands as well as of the complexes in n-octanol/buffered aqueous solution (20 mM phosphate, pH = 7.4) at different chloride ion concentrations (4, 24, and 100 mM) using UV–vis spectrophotometry (Agilent Cary 8454 diode array spectrophotometer, Santa Clara, CA, USA) for the analysis. The compounds were dissolved in buffered aqueous solutions previously saturated with n-octanol. Then the aqueous and n-octanol phases were gently mixed in different volume ratios (using 1:60 for the ligands, 1:1 for the RhCp* and 1:2 for the RuCym complexes ratios of n-octanol to buffered aqueous solution volume) for 4 h, followed by phase separation. Then the UV–vis spectrum of the aqueous or n-octanol phase was recorded and compared to the reference spectrum. Stock solutions were made in the aqueous phase, and distribution coefficients (DpH) were calculated by the following equation: [drawing 3]

MES-SA/B1 = experiment: Cytotoxicity in triple coculture, MES-SA/B1 mOrange; format: cell-based, human
Procedure: (§1) Cell lines were purchased from the American Type Culture Collection (ATCC). MES-SA/B1 is a human MDR1-transfected derivative of MES-SA, and MES-SA mCherry, MES-SA/B1 mOrange, and MES-SA/Dx5 eGFP were engineered to stably express the respective fluorescent proteins previously.[62] Cells were kept in culture medium (DMEM) supplemented with 10% fetal bovine serum, 2 mM L-glutamine, 100 units/mL penicillin, and 100 μg/mL streptomycin (Thermo Fisher). One week before use, MES-SA/Dx5 eGFP cells were treated with 0.5 μM doxorubicin to ensure ABCB1/P-gp expression.
(§2) The tested compounds were dissolved in 50% (v/v) DMSO/PBS’ buffer to prepare 5–10 mM stock solutions, which were diluted in complete culture medium. Constitutive expression of the fluorescent proteins allowed multiplexing in cytotoxicity experiments.[62] Cells were mixed before seeding in 384-well plates: in double cocultures, MES-SA mCherry and MES-SA/Dx5 eGFP cells were seeded at 1250–1250 cells/well (in total 2500 cells/well); while in triple cocultures, MES-SA mCherry, MES-SA/Dx5 eGFP and MES-SA/B1 mOrange cells were seeded at 800–800–800 cells/well (in total 2400 cells/well). Serial dilutions of the compounds were added 24 h after seeding. To address the effect of P-gp function, TQ was added at a nontoxic concentration (0.4 μM) 15 min before the test compounds. The intensity of the fluorescent proteins, which is proportional to cell mass, was measured after 144 h of incubation at the respective fluorescent channels (excitation/emission: eGFP: 485 nm/510 nm; mOrange: 545 nm/567 nm; mCherry: 585 nm/610 nm). pIC50 values were calculated by a custom program written by Judit Sessler in C#.[62] IC50 values and standard deviation were calculated from average pIC50 values from at least 3 independent measurements.

[3] = system: Escherichia coli (ATCC 25922); experiment: Antibacterial MIC, E. coli; format: cell-based; details: Mueller Hinton Broth, 37 °C, 18 h
Procedure: (§3) Escherichia coli (ATCC 25922) was used as Gram-negative strain and Staphylococcus aureus (ATCC 25923, methicillin-resistant (MRSA) ATCC 43300) strains were applied as Gram-positive bacterial cultures in the experiments. MIC values of the compounds were determined in 96-well plates based on the Clinical and Laboratory Standard Institute guidelines (CLSI guidelines).[76] The stock solutions of the compounds (same as those used for cytotoxicity experiments) were diluted in 100 μL of Mueller Hinton Broth. Then, 10^–4 dilution of an overnight bacterial culture in 100 μL of medium was added to each well, with the exception of the medium control wells.

[4] = system: Staphylococcus aureus (ATCC 25923); experiment: Antibacterial MIC, S. aureus; format: cell-based; details: Mueller Hinton Broth, 37 °C, 18 h
Procedure: as §3

[5] = system: methicillin-resistant S. aureus (MRSA) ATCC 43300; experiment: Antibacterial MIC, MRSA; format: cell-based, Staphylococcus aureus; details: Mueller Hinton Broth, 37 °C, 18 h
Procedure: as §3

MES-SA [6] = details: monoculture, PrestoBlue; ref SI3; cited from earlier work
[7] = biological target: human serum albumin (HSA), Trp214 / site I (Homo sapiens, UniProt P02768); experiment: HSA Trp214 fluorescence quenching
human serum albumin (HSA), Trp214 / site I, sequence (P02768 25-609): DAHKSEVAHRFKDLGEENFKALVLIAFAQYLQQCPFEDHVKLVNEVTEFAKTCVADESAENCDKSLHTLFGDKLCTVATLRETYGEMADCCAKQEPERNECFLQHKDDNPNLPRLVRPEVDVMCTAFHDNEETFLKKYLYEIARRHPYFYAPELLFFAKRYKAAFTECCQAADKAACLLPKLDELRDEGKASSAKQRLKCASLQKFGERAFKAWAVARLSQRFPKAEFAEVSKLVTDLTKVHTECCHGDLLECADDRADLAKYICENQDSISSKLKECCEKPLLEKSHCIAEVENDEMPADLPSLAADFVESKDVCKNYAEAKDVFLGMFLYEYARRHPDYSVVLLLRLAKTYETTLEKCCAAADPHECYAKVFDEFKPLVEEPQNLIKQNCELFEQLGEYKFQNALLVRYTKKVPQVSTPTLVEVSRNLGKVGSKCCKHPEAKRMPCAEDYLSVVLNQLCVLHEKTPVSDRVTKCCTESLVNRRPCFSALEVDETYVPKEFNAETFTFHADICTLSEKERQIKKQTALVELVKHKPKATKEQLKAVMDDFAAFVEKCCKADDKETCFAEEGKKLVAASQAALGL
Procedure: (§4) Next, spectrofluorometric measurements were also performed to gain insight into the binding interactions that may occur in the hydrophobic binding sites of HSA. Tryptophan (Trp214) quenching experiments were conducted for the complexes (1–4) (for complex (3) see Figure S31) and their ligands). […] To monitor the binding at site II, site marker displacement experiments were performed using dansylglycine (DG).
(§5) Fluorescence measurements were carried out on a Fluoromax (Horiba Jobin Yvon, Longjumeau, France) spectrofluorometer using a 1 cm × 1 cm quartz cuvette. […] Excitation wavelengths were 295 nm for Trp-214 quenching and 340 nm for the DG displacement studies. The calculated conditional stability constants for HSA–complex species were obtained using the computer program HypSpec.[64] Calculations always were based on data obtained from at least two independent measurements.

[8] = biological target: human serum albumin (HSA), site II (Homo sapiens, UniProt P02768); experiment: HSA dansylglycine (DG) site marker displacement
human serum albumin (HSA), site II, sequence (P02768 25-609): as above
Procedure: as §4, §5

MES-SA [9] = experiment: Cytotoxicity in double coculture, MES-SA mCherry; details: 144 h, read-out: IC50 MES-SA
MES-SA/Dx5 [10] = experiment: Cytotoxicity in double coculture, MES-SA/Dx5 eGFP; details: for IC50: read-out: IC50 MES-SA/Dx5; for SR = IC50 (MES-SA)/IC50 (MES-SA/Dx5): double coculture
MES-SA/Dx5 [11] = experiment: Cytotoxicity in triple coculture, MES-SA/Dx5 eGFP; format: cell-based, human
Procedure: as §1, §2

Molecule Oc1c(CN2CCCCC2)cc(Cl)c2cccnc12 [HQCl-pip, 5-chloro-7-(piperidin-1-ylmethyl)quinolin-8-ol] has a pKa ([1]; read-out: pKa (Npyr/pipH+)) of 11.3 ± 0.12, a pKa ([1]; read-out: pKa (NqH+)) of 2.09 ± 0.05 and a pKa ([1]; read-out: pKa (OH)) of 7.42 ± 0.03. For the same molecule, the “fraction of HL” value ([1]; pH 7.4, based on the pKa values) was 42%, the logD at 4 h ([2]; n-octanol/buffered aqueous solution, n-octanol/H2O, read-out: log D7.4) was 2.54 and the IC50 (MES-SA/B1; Homo sapiens, MES-SA/B1, 144 h) was 380 nM. The MIC ([3]; Escherichia coli, ATCC25922) was 50 µM (≈ 13.8 µg/mL), the MIC ([4]; Staphylococcus aureus, ATCC25923) was 50 µM (≈ 13.8 µg/mL) and the MIC ([5]; Staphylococcus aureus) was 25 µM (≈ 6.92 µg/mL). The IC50 (MES-SA [6]) was 2490 ± 390 nM, the Kd [7] was 7940 nM and the Kd [8] was 3980 nM. The IC50 (MES-SA [9]; Homo sapiens, MES-SA) was 1090 nM and the IC50 (MES-SA/Dx5 [10]; Homo sapiens, MES-SA/Dx5, 144 h) was 90 nM.

In the case of [RhCp*(HQCl-Pip)Cl]Cl [(3)], the logD7.4 ([2]; c(Cl–) = 4 mM) is reported as “+0.34 ± 0.01”, the logD7.4 ([2]; c(Cl–) = 24 mM) is reported as “+0.58 ± 0.01” and the logD7.4 ([2]; c(Cl–) = 100 mM) is reported as “+0.60 ± 0.01”. For the same molecule, the “SR Dx5 = IC50 (MES-SA)/IC50 (MES-SA/Dx5)” value (MES-SA/Dx5 [11]) was 11.1, the IC50 (MES-SA/Dx5 [11]; 144 h) was 190 nM and the “SR B1 = IC50 (MES-SA)/IC50 (MES-SA/B1)” value (MES-SA/B1) was 2.9. It also gave an IC50 (MES-SA/B1; 144 h) of 740 nM, an MIC [3] of 50 µM and an MIC [4] of 50 µM. For the same molecule, the MIC [5] was 25 µM, the “logK’(quenching)” value ([7]; 1 μM HSA, λEX = 295 nm (Trp-214), pH 7.4 (PBS’), […], 24 h) was 5.1 ± 0.1 and the “logK’(DG)” value ([8]; cHSA = cDG = 1 μM, λEX = 335 nm (DG), pH 7.4 (PBS’), […], 24 h) was 5.0 ± 0.1. The IC50 (MES-SA [9]; double coculture with MES-SA/Dx5, without TQ) was 2040 nM, the “SR = IC50 (MES-SA)/IC50 (MES-SA/Dx5)” value (MES-SA/Dx5 [10]; + 0.4 μM tariquidar (TQ)) was 1.3 and the “SR = IC50 (MES-SA)/IC50 (MES-SA/Dx5)” value (MES-SA/Dx5 [10]; without TQ) was 9.1. It also gave an IC50 (MES-SA/Dx5 [10]; double coculture with MES-SA, 144 h, without TQ) of 220 nM.
